# From ChEMBL document CHEMBL5335780, “The emerging role of mixed lineage kinase 3 (MLK3) and its potential as a target for neurodegenerative diseases therapies” (Eur J Med Chem, 2023)
# Columns and labels:
# [1] = target: Mitogen-activated protein kinase kinase kinase 9 (Homo sapiens, UniProt P80192); assay: Inhibition of MLK1 (unknown origin)
# [2] = target: Mitogen-activated protein kinase kinase kinase 11 (Homo sapiens, UniProt Q16584); assay: Inhibition of MLK3 (unknown origin)
# Mitogen-activated protein kinase kinase kinase 11, sequence (Q16584 whole entry): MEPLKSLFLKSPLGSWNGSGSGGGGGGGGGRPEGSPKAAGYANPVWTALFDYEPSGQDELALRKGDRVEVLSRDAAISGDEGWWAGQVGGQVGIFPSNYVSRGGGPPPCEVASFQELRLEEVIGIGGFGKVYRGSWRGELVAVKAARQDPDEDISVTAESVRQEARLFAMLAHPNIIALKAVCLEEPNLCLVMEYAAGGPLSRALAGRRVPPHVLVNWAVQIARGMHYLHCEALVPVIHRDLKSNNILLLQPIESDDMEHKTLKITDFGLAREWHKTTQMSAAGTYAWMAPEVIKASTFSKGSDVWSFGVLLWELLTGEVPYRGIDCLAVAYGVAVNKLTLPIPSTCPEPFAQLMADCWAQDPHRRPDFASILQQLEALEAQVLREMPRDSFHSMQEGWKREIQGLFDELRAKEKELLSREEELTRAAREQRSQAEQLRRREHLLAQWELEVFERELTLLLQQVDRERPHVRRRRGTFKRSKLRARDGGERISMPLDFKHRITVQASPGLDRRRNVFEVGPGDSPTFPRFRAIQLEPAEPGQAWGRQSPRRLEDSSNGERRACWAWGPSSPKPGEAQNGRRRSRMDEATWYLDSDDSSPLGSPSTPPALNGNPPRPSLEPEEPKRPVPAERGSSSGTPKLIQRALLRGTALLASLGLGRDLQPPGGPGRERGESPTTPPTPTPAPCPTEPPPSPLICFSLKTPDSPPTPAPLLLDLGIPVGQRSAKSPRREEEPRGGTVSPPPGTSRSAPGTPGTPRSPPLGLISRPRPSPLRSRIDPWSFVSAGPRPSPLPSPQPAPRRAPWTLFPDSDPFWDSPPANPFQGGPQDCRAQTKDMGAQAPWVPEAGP
# Mitogen-activated protein kinase kinase kinase 9, sequence (P80192 whole entry): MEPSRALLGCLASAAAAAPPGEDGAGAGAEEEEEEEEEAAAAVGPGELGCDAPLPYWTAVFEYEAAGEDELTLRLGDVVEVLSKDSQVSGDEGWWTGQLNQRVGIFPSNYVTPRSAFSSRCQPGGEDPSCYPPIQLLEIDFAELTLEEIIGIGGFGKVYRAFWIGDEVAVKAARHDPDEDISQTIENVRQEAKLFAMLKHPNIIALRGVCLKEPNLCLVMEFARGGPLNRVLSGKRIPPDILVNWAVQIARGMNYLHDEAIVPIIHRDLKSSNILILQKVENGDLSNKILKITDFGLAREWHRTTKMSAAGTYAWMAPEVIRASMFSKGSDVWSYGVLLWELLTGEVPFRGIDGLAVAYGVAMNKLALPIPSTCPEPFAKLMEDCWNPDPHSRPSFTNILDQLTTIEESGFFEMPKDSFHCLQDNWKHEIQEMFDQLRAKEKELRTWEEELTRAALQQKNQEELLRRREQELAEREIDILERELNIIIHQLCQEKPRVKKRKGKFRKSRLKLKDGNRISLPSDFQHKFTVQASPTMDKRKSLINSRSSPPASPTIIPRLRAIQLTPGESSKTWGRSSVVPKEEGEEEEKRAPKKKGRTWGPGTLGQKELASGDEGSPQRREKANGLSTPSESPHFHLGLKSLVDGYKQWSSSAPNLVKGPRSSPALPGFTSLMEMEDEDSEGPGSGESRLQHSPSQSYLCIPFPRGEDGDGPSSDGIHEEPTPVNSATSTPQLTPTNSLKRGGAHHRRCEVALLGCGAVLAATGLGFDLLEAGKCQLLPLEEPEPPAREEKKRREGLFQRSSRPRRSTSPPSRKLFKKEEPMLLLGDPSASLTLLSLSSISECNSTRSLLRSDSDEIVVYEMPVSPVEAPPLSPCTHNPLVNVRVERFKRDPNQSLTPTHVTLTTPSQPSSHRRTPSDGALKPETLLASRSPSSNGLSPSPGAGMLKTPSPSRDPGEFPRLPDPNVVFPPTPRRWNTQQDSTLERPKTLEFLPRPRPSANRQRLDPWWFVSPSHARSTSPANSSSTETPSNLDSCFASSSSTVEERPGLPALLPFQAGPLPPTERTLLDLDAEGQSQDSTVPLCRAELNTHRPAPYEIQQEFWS
smiles,measurement,setting,value
OCCN1CCN(Cc2ccc(-c3cnc4[nH]cc(-c5cccc(Cl)c5)c4c3)cc2)CC1,IC50,[1],44.7 nM
same,IC50,[2],23.7 nM
